Reference: patent US9878986B2, “Compounds for selective histone deacetylase inhibitors, and pharmaceutical composition comprising the same” (CHONG KUN DANG PHARMACEUTICAL CORP., priority 2013, dated 2018)
Structures can show the parent of a compound that is named as a salt.

Assays:
HDAC 6 = target: T1, HDAC 6 (Homo sapiens, UniProt Q9UBN7); assay: Test of HDAC activities, HDAC6 (fluorimetric); type: biochemical; design: purchased Calbiochem 382180; conditions: samples at 0.1, 1, 10, 100, 1000 nM; 37° C. 60 minutes; fluorescence Ex 390, Em 460; read-out: HDAC inhibitory activities, HDAC6
T1 sequence (Q9UBN7 1-1215): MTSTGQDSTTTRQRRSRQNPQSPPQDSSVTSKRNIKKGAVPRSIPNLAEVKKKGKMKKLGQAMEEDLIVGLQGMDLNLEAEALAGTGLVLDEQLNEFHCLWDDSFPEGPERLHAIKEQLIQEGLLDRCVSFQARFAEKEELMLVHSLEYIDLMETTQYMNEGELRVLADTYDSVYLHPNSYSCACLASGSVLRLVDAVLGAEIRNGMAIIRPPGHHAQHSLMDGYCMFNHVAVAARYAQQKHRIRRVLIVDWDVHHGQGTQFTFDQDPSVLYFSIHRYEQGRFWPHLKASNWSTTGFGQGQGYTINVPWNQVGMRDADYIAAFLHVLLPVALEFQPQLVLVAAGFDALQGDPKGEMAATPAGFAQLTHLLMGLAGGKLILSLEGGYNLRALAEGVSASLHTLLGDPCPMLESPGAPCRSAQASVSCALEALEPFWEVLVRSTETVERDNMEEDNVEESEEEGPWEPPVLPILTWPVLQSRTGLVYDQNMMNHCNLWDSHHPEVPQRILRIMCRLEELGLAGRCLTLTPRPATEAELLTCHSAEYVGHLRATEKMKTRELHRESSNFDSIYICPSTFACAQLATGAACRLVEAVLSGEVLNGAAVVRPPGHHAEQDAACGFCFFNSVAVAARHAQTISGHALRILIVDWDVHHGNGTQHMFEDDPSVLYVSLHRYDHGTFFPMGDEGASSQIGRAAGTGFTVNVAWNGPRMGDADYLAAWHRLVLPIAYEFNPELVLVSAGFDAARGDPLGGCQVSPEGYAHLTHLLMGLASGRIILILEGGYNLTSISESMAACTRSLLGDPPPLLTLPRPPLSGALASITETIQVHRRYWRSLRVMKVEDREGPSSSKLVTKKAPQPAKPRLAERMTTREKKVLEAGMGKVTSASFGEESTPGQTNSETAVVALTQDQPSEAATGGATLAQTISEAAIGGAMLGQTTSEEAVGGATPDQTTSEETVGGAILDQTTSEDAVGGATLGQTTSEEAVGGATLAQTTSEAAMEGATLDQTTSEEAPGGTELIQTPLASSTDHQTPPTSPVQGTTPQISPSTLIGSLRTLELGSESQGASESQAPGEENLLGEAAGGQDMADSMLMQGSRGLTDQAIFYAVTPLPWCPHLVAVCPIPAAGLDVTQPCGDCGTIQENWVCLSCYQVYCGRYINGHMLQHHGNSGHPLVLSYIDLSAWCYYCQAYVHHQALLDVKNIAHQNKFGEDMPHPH
How it was run: (§1)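 HDAC1 tested at 100, 1000 and 10000 nM; recombinant human HDAC6 at 0.1, 1, 10, 100 and 1000 nM. Reaction 60 min at 37° C, then developer for 30 min at 37° C; fluorescence read at Ex 390/Em 460.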

HDAC1 = HDAC1 (Homo sapiens, UniProt Q13547); assay: Test of HDAC activities, HDAC1 Fluorimetric Drug Discovery Assay Kit; type: biochemical; design: purchased Enzolifesciences BML-AK511; conditions: samples at 100, 1000, 10000 nM; 37° C. 60 minutes; fluorescence Ex 390, Em 460; read-out: HDAC inhibitory activities, HDAC1
How it was run: as §1

Chain of HDAC1 (Q13547 whole entry): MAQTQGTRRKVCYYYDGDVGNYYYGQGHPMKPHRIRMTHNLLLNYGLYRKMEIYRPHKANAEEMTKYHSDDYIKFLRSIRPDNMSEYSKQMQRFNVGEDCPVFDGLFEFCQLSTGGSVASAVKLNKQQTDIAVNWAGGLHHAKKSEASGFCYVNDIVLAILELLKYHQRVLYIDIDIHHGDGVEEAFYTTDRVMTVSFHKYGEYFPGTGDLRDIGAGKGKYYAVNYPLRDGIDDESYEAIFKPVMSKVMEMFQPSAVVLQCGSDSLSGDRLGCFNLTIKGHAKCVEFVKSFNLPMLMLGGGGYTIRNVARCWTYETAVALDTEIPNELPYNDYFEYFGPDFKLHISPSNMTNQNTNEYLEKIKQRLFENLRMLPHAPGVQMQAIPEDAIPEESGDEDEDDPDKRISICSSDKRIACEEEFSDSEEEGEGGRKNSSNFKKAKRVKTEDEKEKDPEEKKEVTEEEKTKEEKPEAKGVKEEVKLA

SMILES | IC50 (HDAC 6) [nM] | IC50 (HDAC1) [nM]
O=C(NO)c1ccc(CN(C(=O)N2CC(F)(F)C2)c2ccc(C(F)(F)F)cc2)c(F)c1 [Compound 578, 3,3-difluoro-N-(2-fluoro-4-(hydroxycarbamoyl)benzyl)-N-(4-(trifluoromethyl)phenyl) azetidine-1-carboxamide] | 9.3 | 1250
O=C(NO)c1ccc(CN(C(=O)N2CCC(O)(c3ccccc3)CC2)c2cccc(-c3ccc4c(c3)OCO4)c2)cc1 [Compound 465, N-(3-(benzo[d][1,3]dioxol-5-yl)phenyl)-4-hydroxy-N-(4-(hydroxycarbamoyl)benzyl)-4-phenylpiperidine-1-carboxamide] | 9 | 2280
CC1CCN(C(=O)N(Cc2ccc(C(=O)NO)cc2)c2ccc(Cl)c(C(F)(F)F)c2)CC1 [Compound 390, N-(4-chloro-3-(trifluoromethyl)phenyl)-N-(4-(hydroxycarbamoyl)benzyl)-4-methylpiperidine-1-carboxamide] | 20 | 6220
O=C(NO)c1ccc(CN(C(=O)N2CC(F)(F)C2)c2ccc(C(F)(F)F)cc2)cc1 [Compound 485, 3,3-difluoro-N-(4-(hydroxycarbamoyl)benzyl)-N-(4-(trifluoromethyl)phenyl)azetidine-1-carboxamide] | 8 | 860
O=C(NO)c1ccc(CN(C(=O)N2CCOCC2)c2ncccn2)cc1 [Compound 312, N-(4-(hydroxycarbamoyl)benzyl)-N-(pyrimidin-2-yl)morpholine-4-carboxamide] | 7 | 22700
O=C(NO)c1ccc(CN(C(=O)N2CCN(Cc3ccccc3)CC2)c2ccc(F)c(Cl)c2)cc1 [Compound 480, 4-benzyl-N-(3-chloro-4-fluorophenyl)-N-(4-(hydroxycarbamoyl)benzyl)piperazine-1-carboxamide] | 18 | 1070
CC1CN(C(=O)N(Cc2ccc(C(=O)NO)cc2)c2ccc(Cl)c(C(F)(F)F)c2)CC(C)O1 (stereo not drawn) [Compound 392, N-(4-chloro-3-(trifluoromethyl)phenyl)-N-(4-(hydroxycarbamoyl)benzyl)-2,6-dimethylmorpholine-4-carboxamide] | 5 | 2870
CN1CCN(C(=O)N(Cc2ccc(C(=O)NO)cc2)c2ccccn2)CC1 [Compound 353, N-(4-(hydroxycarbamoyl)benzyl)-4-methyl-N-(pyridin-2-yl)piperazine-1-carboxamide] | 10 | 4530
O=C(NO)c1ccc(CN(C(=O)N2CCOCC2)c2nc(-c3ccc(Cl)cc3)cs2)cc1 [Compound 371, N-(4-(4-chlorophenyl)thiazol-2-yl)-N-(4-(hydroxycarbamoyl)benzyl)morpholine-4-carboxamide] | 20 | 1330
O=C(NO)c1ccc(CN(C(=O)N2CCOCC2)c2cccc(C3CCOCC3)c2)cc1 [Compound 483, N-(4-(hydroxycarbamoyl)benzyl)-N-(3-(tetrahydro-2H-pyran-4-yl)phenyl)morpholine-4-carboxamide] | 7 | 840
O=C(NO)c1ccc(CN(C(=O)N2CCOCC2)c2cccc(C3CCNCC3)c2)cc1 [Compound 493, N-(4-(hydroxycarbamoyl)benzyl)-N-(3-(piperidin-4-yl)phenyl)morpholine-4-carboxamide hydrochloride] | 11 | 883
O=C(NO)c1ccc(CN(C(=O)N2CCCCC2)c2cccc(-c3ccc4c(c3)OCO4)c2)cc1 [Compound 462, N-(3-(benzo[d][1,3]dioxol-5-yl)phenyl)-N-(4-(hydroxycarbamoyl)benzyl)piperidine-1-carboxamide] | 14 | 1930
CCN1CCN(C(=O)N(Cc2ccc(C(=O)NO)cc2)c2cccc(C(F)(F)F)n2)CC1 [Compound 826, 4-ethyl-N-(4-(hydroxycarbamoyl)benzyl)-N-(6-(trifluoromethyl)pyridin-2-yl)piperazine-1-carboxamide] | 11.8 | 1850

Stronger by IC50 (HDAC 6), values ahead:

IC50 (HDAC 6) [nM] | IC50 (HDAC1) [nM] | SMILES
4.5 | 1890 | O=C(NO)c1ccc(CN(C(=O)N2CCOCC2)c2ccc(Cl)cn2)cc1 [Compound 533, N-(5-chloropyridin-2-yl)-N-(4-(hydroxycarbamoyl)benzyl)morpholine-4-carboxamide]
4 | 310 | CS(=O)(=O)N1CC=C(c2cccc(N(Cc3ccc(C(=O)NO)cc3)C(=O)N3CCOCC3)c2)CC1 [Compound 420, N-(4-(hydroxycarbamoyl)benzyl)-N-(3-(1-(methylsulfonyl)-1,2,3,6-tetrahydropyridin-4-yl)phenyl)morpholine-4-carboxamide]
3 | 1450 | CC(C)(C)OC(=O)N1CC=C(c2cccc(N(Cc3ccc(C(=O)NO)cc3)C(=O)N3CCOCC3)c2)CC1 [Compound 405, tert-butyl 4-(3-(N-(4-(hydroxycarbamoyl)benzyl)morpholine-4-carboxamido)phenyl)-5,6-dihydropyridine-1(2H)-carboxylate]
2.8 | 312 | O=C(NO)c1ccc(CN(C(=O)N2CCOCC2)c2cccc(OC(F)(F)F)c2)cc1 [Compound 773, N-(4-(hydroxycarbamoyl)benzyl)-N-(3-(trifluoromethoxy)phenyl)morpholine-4-carboxamide]
2 | 72 | O=C(NO)c1ccc(CN(C(=O)N2CCOCC2)c2cccc(-c3ccc4cc[nH]c4c3)c2)cc1 [Compound 261, N-(3-(1H-indol-6-yl)phenyl)-N-(4-(hydroxycarbamoyl)benzyl)morpholine-4-carboxamide]
2 | 680 | COc1cccc(N(Cc2ccc(C(=O)NO)cc2)C(=O)N2CCOCC2)c1 [Compound 484, N-(4-(hydroxycarbamoyl)benzyl)-N-(3-methyoxyphenyl)morpholine-4-carboxamide]
2 | 1600 | CCN1[C@H](C)CN(C(=O)N(Cc2ccc(C(=O)NO)cc2)c2cccc(C(F)(F)F)c2)C[C@@H]1C [Compound 797, (3S,5R)-4-ethyl-N-(4-(hydroxycarbamoyl)benzyl)-3,5-dimethyl-N-(3-(trifluoromethyl)phenyl)piperazine-1-carboxamide]
1.9 | 577 | O=C(NO)c1ccc(CN(C(=O)N2CCOCC2)c2cccc(C(F)(F)F)c2)c(F)c1 [Compound 532, N-(2-fluoro-4-(hydroxycarbamoyl)benzyl)-N-(3-(trifluoromethyl)phenyl)morpholine-4-carboxamide]
1.4 | 161 | O=C(NO)c1ccc(CN(C(=O)N2CCOCC2)c2cccc(F)c2)cc1 [Compound 530, N-(3-fluorophenyl)-N-(4-(hydroxycarbamoyl)benzyl)morpholine-4-carboxamide]
1 | 710 | O=C(NO)c1ccc(CN(C(=O)N2CCOCC2)c2nc(-c3ccccc3)cs2)cc1 [Compound 370, N-(4-(hydroxycarbamoyl)benzyl)-N-(4-phenylthiazol-2-yl)morpholine-4-carboxamide]
1 | 680 | O=C(NO)c1ccc(CN(C(=O)N2CCN(c3ccc(F)cc3)CC2)c2ccc(F)c(Cl)c2)cc1 [Compound 482, N-(3-chloro-4-fluorophenyl)-4-(4-fluorophenyl)-N-(4-(hydroxycarbamoyl)benzyl)piperazine-1-carboxamide]
